The target of series [1] is T1, human mineralocorticoid receptor (MR) (Homo sapiens, UniProt P08235).
T1 construct: expressed in transfected cells; host or cells: HEK293, transient transfection, CMV promoter plasmid
T1 sequence (P08235 1-984): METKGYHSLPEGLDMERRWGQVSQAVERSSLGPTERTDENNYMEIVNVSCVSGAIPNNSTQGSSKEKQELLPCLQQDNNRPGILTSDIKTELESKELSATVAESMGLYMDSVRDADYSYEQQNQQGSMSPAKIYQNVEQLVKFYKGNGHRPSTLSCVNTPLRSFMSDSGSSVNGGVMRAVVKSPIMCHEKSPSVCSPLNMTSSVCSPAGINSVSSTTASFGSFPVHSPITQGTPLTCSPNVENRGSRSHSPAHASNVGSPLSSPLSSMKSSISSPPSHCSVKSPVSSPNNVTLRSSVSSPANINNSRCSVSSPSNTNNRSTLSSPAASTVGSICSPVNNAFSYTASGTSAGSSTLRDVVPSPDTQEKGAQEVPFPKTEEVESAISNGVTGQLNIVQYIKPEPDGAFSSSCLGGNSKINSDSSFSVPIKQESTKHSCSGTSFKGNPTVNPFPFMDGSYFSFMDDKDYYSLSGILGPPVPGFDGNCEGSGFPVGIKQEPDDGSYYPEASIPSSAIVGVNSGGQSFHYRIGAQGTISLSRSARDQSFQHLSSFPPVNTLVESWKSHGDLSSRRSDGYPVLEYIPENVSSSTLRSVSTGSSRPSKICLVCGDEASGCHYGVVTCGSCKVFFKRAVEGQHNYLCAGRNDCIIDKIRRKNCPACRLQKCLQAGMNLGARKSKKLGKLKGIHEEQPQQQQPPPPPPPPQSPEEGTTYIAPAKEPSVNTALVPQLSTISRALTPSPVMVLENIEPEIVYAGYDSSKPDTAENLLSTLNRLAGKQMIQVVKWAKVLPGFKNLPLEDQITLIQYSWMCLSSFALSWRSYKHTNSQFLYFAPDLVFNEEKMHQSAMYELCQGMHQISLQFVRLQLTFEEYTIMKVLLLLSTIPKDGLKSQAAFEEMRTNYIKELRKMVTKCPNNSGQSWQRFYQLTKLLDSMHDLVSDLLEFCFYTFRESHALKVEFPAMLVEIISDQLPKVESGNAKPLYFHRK
The series is described as follows: Nuclear hormone receptor functional modulation assay (GRE-luciferase reporter, HEK293), MR. Format: cell-based. Particulars: agonist mode, mean of n=4 or 5. From the text:
The solvents, reagents, and ligands employed in the functional assay are readily available from commercial sources, or can be prepared by one of ordinary skill in the art.
Human embryonic kidney HEK293 cells are transfected with steroid hormone receptor and reporter gene plasmids using Fugene™ transfection reagent. Briefly, the reporter plasmid containing two copies of probasin ARE and TK(thymidine kinase) promoter upstream of the luciferase reporter cDNA, is transfected into HEK293 cells with a plasmid constitutively expressing human androgen receptor (AR) using viral CMV(cytomegalovirus) promoter. The reporter plasmid containing two copies of GRE and TK promoter upstream of the luciferase reporter cDNA is transfected with a plasmid constitutively expressing either human glucocorticoid receptor (GR), human mineralocorticoid receptor (MR), or human progesterone receptor (PR) using viral CMV promoter. […] After 24-hours incubation with test compounds, cells are lysed and luciferase activity is determined using standard techniques.
Data are fitted to a four parameter-fit logistic curve fit to determine EC50 values. […] IC50 values may be determined similarly using antagonist mode assay data. Percent inhibitions may also be determined relative to the response in the presence of agonist alone, as described above.

Series [2] has as its system serum osteocalcin in male Swiss-Webster mice. In words: Serum osteocalcin assay. Format: in vivo, mouse. Particulars: oral, seven days, 3 mg/Kg/day Compound (I) vs 10 mg/Kg/day prednisolone, serum 24 h after last dose. From the text:
Bone loss/osteoporosis and the resulting increased risk of fracture is a common and significant adverse effect that results from glucocorticoid therapy. Glucocorticoid induced osteoporosis is believed to result, at least in part, from an inhibition of bone formation. The measurement of serum osteocalcin, a biological marker of bone synthesis, is a recognized tool for assessing the adverse effects of glucocorticoid therapy on bone.
To assess the effects of Compound (I) on bone formation, Compound (I) is formulated in a vehicle comprising 5% carboxymethyl cellulose and 0.25% Tween 80 and administered orally via gavage to sixteen week old male Swiss-Webster mice (Harlan Industries, Indianapolis) for seven days. For comparison, prednisolone is administered orally in the same vehicle. Serum is collected 24 hours after the last dose and osteocalcin levels are determined using a competitive radioimmunoassay modified to a 96 well format. […] The filters are punched and the radioactivity quantitated on a gamma counter. Radioactivity detected on the filters from test samples is inversely proportional to serum osteocalcin concentration. […]

As for `CC/C(=C1\c2ccc(F)cc2OCc2ncccc21)c1cccc(NS(C)(=O)=O)c1` [Compound (I), (E)-N-{3-[1-(8-Fluoro-11H-10-oxa-1-aza-dibenzo[a,d]cyclohepten-5-ylidene)-propyl]-phenyl}-methanesulfonamide], the “efficacy in activating transcription, MR” value in series [1] (relative to 30 nM aldosterone) was “about 11%”. The EC50 (usually the concentration needed to bring the measured effect to its halfway point) in series [1] (read-out: EC50 in activating transcription, MR) was over 10 µM. In addition, the “reduction in serum osteocalcin levels” value in series [2] is listed as “less reduction in serum osteocalcin levels than prednisolone”.

For the origin of these results see patent US8101761B2, “(E)-N-{3-[1-(8-fluoro-11H-10-OXA-1-AZA-dibenzo [A,D] cyclohepten-5ylidene)-propyl]-phenyl}-methanesulfonamide as glucocorticoid receptor modulator for the treatment of rheumatoid arthritis” (Eli Lilly and Company, priority 2008, dated 2012).
